The structures appear in SMILES notation. Some results are limits rather than exact numbers.

The target in the first experiment is T1, human CTPS1 (Homo sapiens, UniProt P17812).
T1 sequence (P17812 1-591): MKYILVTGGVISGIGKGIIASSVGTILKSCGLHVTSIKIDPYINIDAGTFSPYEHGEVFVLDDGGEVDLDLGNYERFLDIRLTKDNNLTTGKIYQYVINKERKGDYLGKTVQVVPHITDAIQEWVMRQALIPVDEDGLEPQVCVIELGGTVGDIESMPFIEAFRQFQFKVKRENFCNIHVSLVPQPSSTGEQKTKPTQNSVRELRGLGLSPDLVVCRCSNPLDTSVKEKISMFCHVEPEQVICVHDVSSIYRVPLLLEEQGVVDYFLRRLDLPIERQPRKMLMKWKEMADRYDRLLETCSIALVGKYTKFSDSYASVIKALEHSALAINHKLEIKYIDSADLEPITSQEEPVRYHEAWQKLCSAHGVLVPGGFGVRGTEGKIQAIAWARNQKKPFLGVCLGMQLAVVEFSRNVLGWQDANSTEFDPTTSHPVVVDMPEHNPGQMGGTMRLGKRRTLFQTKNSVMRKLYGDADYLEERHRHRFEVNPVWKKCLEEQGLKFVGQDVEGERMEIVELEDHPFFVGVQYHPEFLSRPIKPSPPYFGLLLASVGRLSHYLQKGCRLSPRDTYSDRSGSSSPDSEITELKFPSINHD
Kind of experiment: ADP-Glo assay, human CTPS1 enzyme inhibition. It is filed as biochemical. The settings on record: wild-type human CTPS1 25 nM; ATP 120 μM, UTP 160 μM, GTP 60 μM, L-glutamine 100 μM; 25 degrees C.; read-out: ADP-Glo_WT_hCTPS1—25 nM_IC50 (IC50). The gist of the method:
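Full-length tagged human CTPS1 (25 nM) pre-incubated 10 min at 25° C with compound, then 10 min with ATP (120 μM) and UTP (160 μM); reaction started with L-glutamine (100 μM) and GTP (60 μM), 1% DMSO, in HEPES pH 7.4, 10 mM Mg2+, 5 mM KCl, 2 mM DTT. Run within linear phase at 25° C; ADP measured by ADP-Glo luminescence.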
What is called IC50 is the concentration that gives 50% inhibition. As for `COC[C@@H](NC(=O)c1ncc(-c2cnn3ccc(Cl)cc23)s1)c1nccc(NS(=O)(=O)C2CC2)c1F` (single isomer, unassigned) [II-2], the IC50 fell in the range of 5 to 25 nM.

The same experiment, now with this note: wild-type human CTPS1, 25 nM enzyme; ADP-Glo; read-out: ADP-Glo_WT_hCTPS1—25 nM_IC50 (IC50).
On to `CCOc1cncc(-c2cnc(C(=O)N[C@@H](CN3CCCC3)c3cccc(NS(=O)(=O)C(F)F)c3)s2)n1` (single isomer, unassigned) [I-38], for which the half-inhibitory concentration (IC50) was 5 to 25 nM.

As for `CCOc1cncc(-c2cnc(C(=O)N[C@H](CN3CCN(C4CC4)CC3)c3cccc(NS(=O)(=O)C(F)F)c3)s2)n1` (single isomer, unassigned) [I-40], the half-inhibitory concentration (IC50) is 25 to 50 nM.

Consider `CCOc1cncc(-c2cnc(C(=O)N[C@@H](CN3C[C@H]4COC[C@H]4C3)c3cc(NS(=O)(=O)C4CC4)ccn3)s2)n1` (single isomer, unassigned) [I-30], for which the IC50 lay within 25 to 50 nM.

Consider `O=C(N[C@H](CN1CCCC1)c1cccc(NS(=O)(=O)C(F)F)c1)c1ncc(-c2cnn3ccc(Cl)cc23)s1` [I-220, (S)-5-(5-chloropyrazolo[1,5-a]pyridin-3-yl)-N-(1-(3-((difluoromethyl)sulfonamido)phenyl)-2-(pyrrolidin-1-yl)ethyl)thiazole-2-carboxamide], for which the IC50 is 25 to 50 nM.

In the case of `CCOc1cncc(-c2cnc(C(=O)N[C@H](CN3CCCC3)c3cc(NS(=O)(=O)C4CC4)ncn3)s2)n1` [I-251, (R)-N-(1-(6-(cyclopropanesulfonamido)pyrimidin-4-yl)-2-(pyrrolidin-1-yl)ethyl)-5-(6-ethoxypyrazin-2-yl)thiazole-2-carboxamide], the concentration for half-maximal inhibition (IC50) lay within 25 to 50 nM.

For `O=C(N[C@@H](c1cc(NS(=O)(=O)C2CC2)ccn1)[C@@H]1CCOC1)c1ncc(-c2cnn3ccc(Cl)cc23)s1` (single isomer, unassigned) [I-24], the IC50 lay within 5 to 25 nM.

Regarding `O=C(NC(CN1C[C@H]2C[C@@H]1CO2)c1cc(NS(=O)(=O)C2CC2)ccn1)c1ncc(-c2cnn3ccc(Cl)cc23)s1` (stereo partly drawn) [I-159, N-(2-((1R,4R)-2-oxa-5-azabicyclo[2.2.1]heptan-5-yl)-1-(4-(cyclopropanesulfonamido)pyridin-2-yl)ethyl)-5-(5-chloropyrazolo[1,5-a]pyridin-3-yl)thiazole-2-carboxamide], the IC50 fell in the range of 5 to 25 nM.

In the case of `CCOc1cncc(-c2cnc(C(=O)N[C@@H](CF)c3cc(NS(=O)(=O)C4CC4)ccn3)s2)n1` [I-160, (R)-N-(1-(4-(cyclopropanesulfonamido)pyridin-2-yl)-2-fluoroethyl)-5-(6-ethoxypyrazin-2-yl)thiazole-2-carboxamide], the half-inhibitory concentration (IC50) lay in the range of 5 to 25 nM.

Take `CCOc1cncc(-c2ccc(C(=O)N[C@H](CN3CCOCC3)c3cc(NS(=O)(=O)C4CC4)ccn3)c(F)c2)n1` [I-144, (R)-N-(1-(4-(cyclopropanesulfonamido)pyridin-2-yl)-2-morpholinoethyl)-4-(6-ethoxypyrazin-2-yl)-2-fluorobenzamide]: the concentration for half-maximal inhibition (IC50) lay within 5 to 25 nM.

For `CCOc1cncc(-c2cnc(C(=O)N[C@H](c3cc(NS(=O)(=O)C4CC4)ccn3)[C@@H]3CN(C)CCO3)s2)n1` [I-99, N-((R)-(4-(cyclopropanesulfonamido)pyridin-2-yl)((S)-4-methylmorpholin-2-yl)methyl)-5-(6-ethoxypyrazin-2-yl)thiazole-2-carboxamide], the IC50 fell in the range of 5 to 25 nM.

In the case of `CCOc1cncc(-c2cnc(C(=O)N[C@H](c3cc(NS(=O)(=O)C4CC4)ccn3)[C@@H]3CCN(CCF)C3)s2)n1` [I-108, N-((S)-(4-(cyclopropanesulfonamido)pyridin-2-yl)((R)-1-(2-fluoroethyl)pyrrolidin-3-yl)methyl)-5-(6-ethoxypyrazin-2-yl)thiazole-2-carboxamide], the 50% inhibitory concentration (IC50) was 5 to 25 nM.

With `CCOc1cncc(-c2cnc(C(=O)N[C@@H](c3cc(NS(=O)(=O)C4CC4)ccn3)[C@H]3CCCO3)s2)n1` [I-62, N-((S)-(4-(cyclopropanesulfonamido)pyridin-2-yl)((R)-tetrahydrofuran-2-yl)methyl)-5-(6-ethoxypyrazin-2-yl)thiazole-2-carboxamide], the IC50 is 5 to 25 nM.

In the case of `CCOc1cncc(-c2cnc(C(=O)N[C@H](c3cc(NS(=O)(=O)C4CC4)ccn3)[C@@H](C)O)s2)n1` [I-267, N-((1R,2R)-1-(4-(cyclopropanesulfonamido)pyridin-2-yl)-2-hydroxypropyl)-5-(6-ethoxypyrazin-2-yl)thiazole-2-carboxamide], the IC50 fell in the range of 5 to 25 nM.

Consider `CCOc1cncc(-c2cnc(C(=O)N[C@@H](COC)c3nccc(NS(=O)(=O)C4CC4)n3)s2)n1` [I-98, (R)-N-(1-(4-(cyclopropanesulfonamido)pyrimidin-2-yl)-2-methoxyethyl)-5-(6-ethoxypyrazin-2-yl)thiazole-2-carboxamide], for which the IC50 lay within 25 to 50 nM.

On to `CCOc1cncc(-c2cnc(C(=O)N[C@H](c3cccc(NS(=O)(=O)C(F)F)c3)[C@H](C)O)s2)n1` [I-289, N-((1R,2S)-1-(3-((difluoromethyl)sulfonamido)phenyl)-2-hydroxypropyl)-5-(6-ethoxypyrazin-2-yl)thiazole-2-carboxamide], for which the IC50 was 5 to 25 nM.

For the compound `CCOc1cncc(-c2cnc(C(=O)N[C@@H](c3cc(NS(=O)(=O)C4CC4)ccn3)[C@H]3CC(=O)N(C)C3)s2)n1` [I-122, N-((R)-(4-(cyclopropanesulfonamido)pyridin-2-yl)((S)-1-methyl-5-oxopyrrolidin-3-yl)methyl)-5-(6-ethoxypyrazin-2-yl)thiazole-2-carboxamide], the 50% inhibitory concentration (IC50) lay in the range of 5 to 25 nM.

As to `CCOc1cncc(-c2cnc(C(=O)N[C@H](c3cc(NS(=O)(=O)C4CC4)ccn3)[C@@H]3CCN(C4CCCC4)C3)s2)n1` [I-94, N-((S)-((R)-1-cyclopentylpyrrolidin-3-yl)(4-(cyclopropanesulfonamido)pyridin-2-yl)methyl)-5-(6-ethoxypyrazin-2-yl)thiazole-2-carboxamide], the IC50 is more than 100 nM.

As to `CCOc1cncc(-c2cnc(C(=O)N(C)[C@H](CN3CCOCC3)c3cc(NS(=O)(=O)C4CC4)ccn3)s2)n1` [I-142, (R)-N-(1-(4-(cyclopropanesulfonamido)pyridin-2-yl)-2-morpholinoethyl)-5-(6-ethoxypyrazin-2-yl)-N-methylthiazole-2-carboxamide], the IC50 was more than 100 nM.

On to `CCOc1cncc(-c2cnc(C(=O)N[C@@H](c3cc(NS(=O)(=O)C4CC4)ccn3)[C@@H](C)OC)s2)n1` [I-46, N-((1S,2R)-1-(4-(cyclopropanesulfonamido)pyridin-2-yl)-2-methoxypropyl)-5-(6-ethoxypyrazin-2-yl)thiazole-2-carboxamide], for which the IC50 was 5 to 25 nM.

`CCOc1cncc(-c2cnc(C(=O)N[C@@H](CCNC3CC3)c3cc(NS(=O)(=O)C4CC4)ccn3)s2)n1` [I-185, (S)-N-(1-(4-(cyclopropanesulfonamido)pyridin-2-yl)-3-(cyclopropylamino)propyl)-5-(6-ethoxypyrazin-2-yl)thiazole-2-carboxamide]: the IC50 was 50 to 100 nM.

For `CCOc1cncc(-c2cnc(C(=O)N[C@@H](COC)c3nccc(NS(=O)(=O)C4CC4)c3F)s2)n1` (single isomer, unassigned) [I-11], the half-inhibitory concentration (IC50) lay within 5 to 25 nM.

Turning to `CCOc1cncc(-c2cnc(C(=O)N[C@H](CO[C@H]3CCOC3)c3cc(NS(=O)(=O)C4CC4)ccn3)s2)n1` [I-241, N-((S)-1-(4-(cyclopropanesulfonamido)pyridin-2-yl)-2-(((S)-tetrahydrofuran-3-yl)oxy)ethyl)-5-(6-ethoxypyrazin-2-yl)thiazole-2-carboxamide], the IC50 was 5 to 25 nM.

For `COC[C@@H](NC(=O)c1ccc(-c2cnn3ccc(Cl)cc23)cc1F)c1cc(NS(=O)(=O)C2CC2)ccn1` [I-285, (S)-4-(5-chloropyrazolo[1,5-a]pyridin-3-yl)-N-(1-(4-(cyclopropanesulfonamido)pyridin-2-yl)-2-methoxyethyl)-2-fluorobenzamide], the IC50 was 50 to 100 nM.

For `O=C(N[C@]1(c2cc(NS(=O)(=O)C3CC3)ccn2)C[C@@H](O)C1)c1ncc(-c2cnn3ccc(Cl)cc23)s1` [I-90, 5-(5-chloropyrazolo[1,5-a]pyridin-3-yl)-N-((1r,3r)-1-(4-(cyclopropanesulfonamido)pyridin-2-yl)-3-hydroxycyclobutyl)thiazole-2-carboxamide], the IC50 lay within 5 to 25 nM.

Regarding `CCOc1cncc(-c2cnc(C(=O)N[C@@H](CN3CC[C@]4(CCOC4)C3)c3cc(NS(=O)(=O)C4CC4)ccn3)s2)n1` [I-127, N-((S)-1-(4-(cyclopropanesulfonamido)pyridin-2-yl)-2-((S)-2-oxa-7-azaspiro[4.4]nonan-7-yl)ethyl)-5-(6-ethoxypyrazin-2-yl)thiazole-2-carboxamide], the half-inhibitory concentration (IC50) fell in the range of 5 to 25 nM.

Turning to `CCOc1cncc(-c2cnc(C(=O)N[C@@H](c3cc(NS(=O)(=O)C4CC4)ccn3)[C@H]3COCCO3)s2)n1` [I-75, N-((S)-(4-(cyclopropanesulfonamido)pyridin-2-yl)((S)-1,4-dioxan-2-yl)methyl)-5-(6-ethoxypyrazin-2-yl)thiazole-2-carboxamide], the IC50 was in the range of 5 to 25 nM.

The values above are taken from patent US20250270200A1, “CTPS1 INHIBITORS AND USES THEREOF” (Nimbus Clotho, Inc., priority 2022, published 2025).
